For 11 compounds, IC50 results are on record in patent publication US12084458B2, “Substituted pyridines, pyridazines, and pyrimidines as TYK2 inhibitors” (Sudo Biosciences Limited, priority 2021, dated 2024).

A value given as a limit tells only on which side of the number the result lay.

In test [1] the test system is HEK-Blue IL-23 cells (IL-23-stimulated STAT3 SEAP reporter; TYK2 JH2). The experiment in a line: HEK-Blue IL-23 SEAP reporter assay for profiling TYK2 pseudokinase (JH2) inhibition. It counts as cell-based. The following applies: 10 ng/mL human recombinant IL-23, SEAP reporter, read-out: IL23 (TYK2 inhibitory activity, IC50). Put shortly: (§1)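 STAT-inducible SEAP read-out: IFNα/β cells got 1 ng/mL IFNα for 16-18 h and IL-23 cells got 10 ng/mL IL-23 for 22-24 hours. In both cases the cytokine followed a 60 min preincubation with titrated test compound.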

In a further test the target is T1, JAK2 kinase domain (JH1) (Homo sapiens, UniProt O60674).
T1 construct: recombinant purified His or GST-tagged catalytic domain for each enzyme; made in house
Description: HTRF-based selectivity assay, JAK2 catalytic domain. Type of test: biochemical. The following applies: recombinant catalytic domain, ATP 14.7 μM. The procedure: (§2) Example B-2: HTRF-Based Selectivity Assay
(§3) The ability of compounds to inhibit the activity of JAK1, JAK2, JAK3 and TYK2 is measured using a recombinant purified His or GST-tagged catalytic domain for each enzyme (JAK1, JAK2 and TYK2 are generated in-house; JAK3 was purchased from Carna biosciences, Cat #08-046) in an HTRF format biochemical assay. The reactions employs a commercial peptide substrate from Cisbio (Cat #62TK0PEC). The basic assay protocol is as follows: first, 2.5 μL of diluted compounds (4×) in DMSO are dispensed into a 384-well Optiplate. Next, 2.5 μL of enzyme (final concentrations for enzymes are: TYK2—700 ng/mL, JAK1—80.6 ng/mL, JAK2—2.1 ng/mL and JAK3—171.8 ng/mL) is added and incubated at RT for 5-20 min. Finally, 5 μl of mixture of 2× ATP [Final concentration 20 μM for TYK2, 21.43 μM for JAK1, 14.7 μM for JAK2 and 2.12 μM for JAK3]+2× Substrate [Final concentration 217 nM for TYK2, 454.7 nM for JAK1, 200 nM for JAK2 and 257.4 nM for JAK3] is added to 384 well Optiplate. Composition of Kinase assay buffer used in the assay is as follows: HEPES 50 mM, EGTA 1 mM, MgCl2 10 mM, DTT 2 mM, Tween-20 0.01% and water. Then the plates are shaken and then incubated at 26.5° C. for 60 min.

Test [2] relates to HEK-Blue IFNα/β cells (IFNα-stimulated STAT1 SEAP reporter; TYK2 JH2). The experiment in a line: HEK-Blue IFNα/β SEAP reporter assay for profiling TYK2 pseudokinase (JH2) inhibition. It counts as cell-based. The following applies: Homo sapiens, HEK-Blue, 1 ng/mL human recombinant IFNα, read-out: IFNα (TYK2 inhibitory activity, IC50). Put shortly:
as §1

In test [3] the test system is HEK-Blue IFNγ reporter cells (IFNγ-stimulated STAT1 SEAP reporter). The experiment in a line: HEK-Blue IFNγ SEAP reporter assay for determining selectivity. Particulars: Homo sapiens, HEK-Blue, 50 ng/mL human recombinant IFNγ, read-out: IFN-γ (SEAP selectivity, IC50). Type of test: cell-based. Put shortly: (§4)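 Cells were plated for 20-22 h, then pretreated with serially diluted compound for 60 min. They were stimulated for 24 h with 4 ng/mL human recombinant IL-2 or 50 ng/mL human recombinant IFNγ, and SEAP induction was read with QUANTI-Blue.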

Another test addresses T2, JAK3 kinase domain (JH1) (Homo sapiens, UniProt P52333).
T2 construct: recombinant purified His or GST-tagged catalytic domain for each enzyme; purchased Carna biosciences 08-046
Description: HTRF-based selectivity assay, JAK3 catalytic domain. Type of test: biochemical. The following applies: recombinant catalytic domain, ATP 2.12 μM. As to the method: as §2, §3

Test [4] relates to HEK-Blue IL-2 reporter cells (IL-2-stimulated STAT5 SEAP reporter). The experiment in a line: HEK-Blue IL-2 SEAP reporter assay for determining selectivity. Particulars: 4 ng/mL human recombinant IL-2. It counts as cell-based. Put shortly:
as §4

The target of another test is T3, JAK1 kinase domain (JH1) (Homo sapiens, UniProt P23458).
T3 construct: recombinant purified His or GST-tagged catalytic domain for each enzyme; made in house
Description: HTRF-based selectivity assay, JAK1 catalytic domain. The following applies: recombinant catalytic domain, ATP 21.43 μM. Type of test: biochemical. As to the method: as §2, §3

The target in the next test is T4, TYK2 kinase domain (JH1) (Homo sapiens, UniProt P29597).
T4 construct: recombinant purified His or GST-tagged catalytic domain for each enzyme; made in house
T4 sequence (P29597 897-1176 limits assumed): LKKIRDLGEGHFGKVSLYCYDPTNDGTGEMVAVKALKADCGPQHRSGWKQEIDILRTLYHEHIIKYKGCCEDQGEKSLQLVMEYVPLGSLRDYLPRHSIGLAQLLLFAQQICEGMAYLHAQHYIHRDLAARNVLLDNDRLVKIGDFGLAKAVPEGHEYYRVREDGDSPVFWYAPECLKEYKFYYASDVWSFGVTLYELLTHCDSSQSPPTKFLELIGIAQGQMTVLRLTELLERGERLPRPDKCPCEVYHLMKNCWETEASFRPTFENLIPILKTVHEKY
The experiment in a line: HTRF-based selectivity assay, TYK2 catalytic domain. It counts as biochemical. Particulars: recombinant catalytic domain, ATP 20 μM. As to the method: as §2, §3

T3 sequence (P23458 875-1153 limits assumed): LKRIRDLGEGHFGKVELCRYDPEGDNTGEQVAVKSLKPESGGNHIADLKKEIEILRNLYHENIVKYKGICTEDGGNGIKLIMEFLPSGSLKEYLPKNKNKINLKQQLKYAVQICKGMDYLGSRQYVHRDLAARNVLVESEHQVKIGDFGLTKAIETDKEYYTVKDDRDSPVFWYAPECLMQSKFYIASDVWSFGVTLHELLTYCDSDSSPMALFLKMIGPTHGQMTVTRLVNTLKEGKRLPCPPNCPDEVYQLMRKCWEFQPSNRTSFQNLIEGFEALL
T1 sequence (O60674 849-1124 limits assumed): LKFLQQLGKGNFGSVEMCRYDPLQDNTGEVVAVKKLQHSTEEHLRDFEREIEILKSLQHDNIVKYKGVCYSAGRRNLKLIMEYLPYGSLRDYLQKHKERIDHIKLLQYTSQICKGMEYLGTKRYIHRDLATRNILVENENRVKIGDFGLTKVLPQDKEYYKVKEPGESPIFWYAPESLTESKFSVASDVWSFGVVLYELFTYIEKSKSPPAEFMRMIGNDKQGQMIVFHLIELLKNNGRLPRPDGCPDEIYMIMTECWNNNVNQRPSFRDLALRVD
T2 sequence (P52333 822-1111 limits assumed): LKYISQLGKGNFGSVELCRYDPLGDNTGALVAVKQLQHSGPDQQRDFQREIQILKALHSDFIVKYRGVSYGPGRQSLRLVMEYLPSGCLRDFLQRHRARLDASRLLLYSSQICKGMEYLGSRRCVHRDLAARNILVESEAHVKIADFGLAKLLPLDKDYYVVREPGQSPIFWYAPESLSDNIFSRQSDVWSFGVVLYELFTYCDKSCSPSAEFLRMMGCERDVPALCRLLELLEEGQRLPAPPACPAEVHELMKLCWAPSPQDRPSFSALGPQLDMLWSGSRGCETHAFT

With `[2H]C([2H])([2H])NC(=O)c1nnc(NC(=O)C2CC2)cc1Nc1cccc2c1N(C)Cc1nc(C)nn1-2` [Compound 5, 6-(cyclopropanecarboxamido)-4-((2,5-dimethyl-4,5-dihydro-[1,2,4]triazolo[1,5-a]quinoxalin-6-yl)amino)-N-(methyl-d3)pyridazine-3-carboxamide], the IC50 in test [1] is less than 30 nM; on JAK2 kinase domain (JH1), more than 1000 nM; in test [2], less than 30 nM; in test [3], 30 to 300 nM; at JAK3 kinase domain (JH1), more than 1000 nM; in test [4], more than 1000 nM. Also, the IC50 on JAK1 kinase domain (JH1) and at TYK2 kinase domain (JH1) was more than 1000 nM each time.

As to `[2H]C([2H])([2H])NC(=O)c1cnc(NC(=O)C2CC2)cc1Nc1cccc2c1N(C)Cc1ncnn1-2` [Compound 6, 6-(cyclopropanecarboxamido)-N-(methyl-d3)-4-((5-methyl-4,5-dihydro-[1,2,4]triazolo[1,5-a]quinoxalin-6-yl)amino)nicotinamide], the concentration for half-maximal inhibition (IC50) in test [1] was less than 30 nM; at JAK2 kinase domain (JH1), more than 1000 nM; in test [2], less than 30 nM; in test [3], 300 to 1000 nM; at JAK3 kinase domain (JH1), more than 1000 nM; in test [4], more than 1000 nM. The concentration for half-maximal inhibition (IC50) at JAK1 kinase domain (JH1) and on TYK2 kinase domain (JH1) was more than 1000 nM each time.

On to `[2H]C([2H])([2H])NC(=O)c1nnc(NC(=O)C2CC2)cc1Nc1cccc2c1N(C)Cc1ncnn1-2` [Compound 7, 6-(cyclopropanecarboxamido)-N-(methyl-d3)-4-((5-methyl-4,5-dihydro-[1,2,4]triazolo[1,5-a]quinoxalin-6-yl)amino)pyridazine-3-carboxamide], for which the IC50 in test [1] is less than 30 nM; at JAK2 kinase domain (JH1) it was more than 1000 nM; in test [2] it was 30 to 300 nM; in test [3] it was 30 to 300 nM; at JAK3 kinase domain (JH1), more than 1000 nM; in test [4], more than 1000 nM. For the same compound, the IC50 on JAK1 kinase domain (JH1) and on TYK2 kinase domain (JH1) was more than 1000 nM each time.

Consider `[2H]C([2H])([2H])NC(=O)c1nnc(Nc2ccc(C#N)cn2)cc1Nc1cccc2c1N(C)Cc1nc(C)nn1-2` [Compound 13, 6-((5-cyanopyridin-2-yl)amino)-4-((2,5-dimethyl-4,5-dihydro-[1,2,4]triazolo[1,5-a]quinoxalin-6-yl)amino)-N-(methyl-d3)pyridazine-3-carboxamide], for which the IC50 in test [1] is less than 30 nM; on JAK2 kinase domain (JH1), more than 1000 nM; in test [2] it was less than 30 nM; on JAK3 kinase domain (JH1), more than 1000 nM; in test [4], more than 1000 nM; at JAK1 kinase domain (JH1), more than 1000 nM. For the same compound, on TYK2 kinase domain (JH1), the IC50 is more than 1000 nM.

With `[2H]C([2H])([2H])NC(=O)c1nnc(NC(=O)C2CC2)cc1Nc1cccc2c1N(C([2H])([2H])[2H])Cc1nn(C)nc1-2` [Compound 48, 6-(cyclopropanecarboxamido)-N-(methyl-d3)-4-((2-methyl-5-(methyl-d3)-4,5-dihydro-2H-[1,2,3]triazolo[4,5-c]quinolin-6-yl)amino)pyridazine-3-carboxamide], the IC50 in test [1] was less than 30 nM; at JAK2 kinase domain (JH1), more than 1000 nM; in test [2], less than 30 nM; in test [3], 30 to 300 nM; at JAK3 kinase domain (JH1), more than 1000 nM; in test [4], 300 to 1000 nM. Besides, the IC50 on JAK1 kinase domain (JH1) and at TYK2 kinase domain (JH1) was more than 1000 nM throughout.

For `[2H]C([2H])([2H])NC(=O)c1cnc(NC(=O)C2CC2)cc1Nc1cccc2c1N(C)C([2H])([2H])c1nn(C)nc1-2` [Compound 52, 6-(cyclopropanecarboxamido)-4-((2,5-dimethyl-4,5-dihydro-2H-[1,2,3]triazolo[4,5-c]quinolin-6-yl-4,4-d2)amino)-N-(methyl-d3)nicotinamide], the IC50 in test [1] was less than 30 nM; at JAK2 kinase domain (JH1), more than 1000 nM; in test [2], less than 30 nM; on JAK3 kinase domain (JH1), more than 1000 nM; in test [4] it was more than 1000 nM; on JAK1 kinase domain (JH1), more than 1000 nM. In addition, the IC50 on TYK2 kinase domain (JH1) is more than 1000 nM.

Turning to `CNC(=O)c1nnc(NC(=O)C2CC2)cc1Nc1cccc2c1OCCn1cnnc1-2` [Compound 72, 6-(cyclopropanecarboxamido)-4-((5,6-dihydrobenzo[f][1,2,4]triazolo[4,3-d][1,4]oxazepin-8-yl)amino)-N-methylpyridazine-3-carboxamide], the IC50 in test [1] was 300 to 1000 nM; on JAK2 kinase domain (JH1) it was 30 to 300 nM; in test [2], more than 1000 nM; in test [3], more than 1000 nM; on JAK3 kinase domain (JH1), 300 to 1000 nM; in test [4], more than 1000 nM. Besides, the IC50 on JAK1 kinase domain (JH1) and on TYK2 kinase domain (JH1) was more than 1000 nM throughout.

On to `CNC(=O)c1nnc(Nc2ccc(F)cn2)cc1Nc1cccc2c1OCCn1cnnc1-2` [Compound 73, 4-((5,6-dihydrobenzo[f][1,2,4]triazolo[4,3-d][1,4]oxazepin-8-yl)amino)-6-((5-fluoropyridin-2-yl)amino)-N-methylpyridazine-3-carboxamide], for which the IC50 in test [1] was 30 to 300 nM; on JAK2 kinase domain (JH1), 300 to 1000 nM; in test [2], 300 to 1000 nM; in test [3], 300 to 1000 nM; at JAK3 kinase domain (JH1) it was more than 1000 nM; in test [4], 300 to 1000 nM. Also, the IC50 on JAK1 kinase domain (JH1) and at TYK2 kinase domain (JH1) was more than 1000 nM throughout.

In the case of `CNC(=O)c1nnc(Nc2ccc(F)cn2)cc1Nc1cccc2c1N(C)CCn1cnnc1-2` [Compound 76, 6-((5-fluoropyridin-2-yl)amino)-N-methyl-4-((7-methyl-6,7-dihydro-5H-benzo[f][1,2,4]triazolo[4,3-d][1,4]diazepin-8-yl)amino)pyridazine-3-carboxamide], the IC50 in test [1] is less than 30 nM; on JAK2 kinase domain (JH1), 300 to 1000 nM; in test [2], 30 to 300 nM; in test [3], 300 to 1000 nM; on JAK3 kinase domain (JH1) it was 300 to 1000 nM; in test [4], more than 1000 nM. The IC50 on JAK1 kinase domain (JH1) and at TYK2 kinase domain (JH1) was more than 1000 nM each time.

As to `CNC(=O)c1nnc(NC(=O)C2CC2)cc1Nc1cccc2c1N(C)CCn1cnnc1-2` [Compound 77, 6-(cyclopropanecarboxamido)-N-methyl-4-((7-methyl-6,7-dihydro-5H-benzo[f][1,2,4]triazolo[4,3-d][1,4]diazepin-8-yl)amino)pyridazine-3-carboxamide], the IC50 in test [1] is less than 30 nM; on JAK2 kinase domain (JH1), 30 to 300 nM; in test [2] it was 30 to 300 nM; in test [3], 300 to 1000 nM; at JAK3 kinase domain (JH1) it was 300 to 1000 nM; in test [4], more than 1000 nM. Besides, the IC50 on JAK1 kinase domain (JH1) and at TYK2 kinase domain (JH1) was more than 1000 nM throughout.

In the case of `[2H]C([2H])([2H])NC(=O)c1cnc(NC(=O)C2CC2)cc1Nc1nccc2c1N(C)Cc1nn(C)nc1-2` [Compound 89, 6-(cyclopropanecarboxamido)-4-((2,5-dimethyl-4,5-dihydro-2H-[1,2,3]triazolo[4,5-c][1,7]naphthyridin-6-yl)amino)-N-(methyl-d3)nicotinamide], the IC50 in test [1] was less than 30 nM; at JAK2 kinase domain (JH1), more than 1000 nM; in test [2], less than 30 nM; at JAK3 kinase domain (JH1), more than 1000 nM; in test [4], more than 1000 nM; at JAK1 kinase domain (JH1) it was more than 1000 nM. Also, the IC50 on TYK2 kinase domain (JH1) is more than 1000 nM.
